Source: US9670184B2, “Amorphous allisartan isoproxil, preparation method therefor, and pharmaceutical composition containing amorphous allisartan isoproxil” (SHENZHEN SALUBRIS PHARMACEUTICALS CO. LTD, priority 2013, dated 2017)

What was measured:
Assay type in all cases: physicochemical
[1] = Repose angle of powders by fixed-funnel method; details: powder sieved through 100-mesh screen
Excerpt: (§1) The powders of experiment 1 and 3 were pulverized and then sieved through a 100-mesh screen to obtain powders with particle size similar to the crystal powder. Then the repose angles of the powders were detected respectively by using a fixed-funnel method; and the bulk densities of the powders were detected respectively by using measurement in a graduated cylinder (Method I of Bulk Density disclosed in Ph. Eur), and the results were shown in the table below: […]

[2] = Bulk density of powders, measurement in a graduated cylinder (Method I of Bulk Density, Ph. Eur); details: powder sieved through 100-mesh screen
Excerpt: as §1

[3] = Electrostatic phenomenon of the dried powder (observation); details: powder after drying

Repose Angle [1] | Bulk Density [2] [g/mL] | Electrostatic phenomenon [3] | Compound
33-36 ° | 0.79 | no obvious electrostatic phenomenon | CCCCc1nc(Cl)c(C(=O)OCOC(=O)OC(C)C)n1Cc1ccc(-c2ccccc2-c2nnn[nH]2)cc1 [Amorphous allisartan isoproxil obtained from experiment 3] [2-butyl-4-chloro-1-[2′-(1H-tetrazol-5-yl)-1,1′-biphenyl-methyl]-imidazole-5-carboxylic acid, 1-[(isopropoxy)-carbonyloxy]methyl ester]
– | – | no obvious electrostatic phenomenon | CCCCc1nc(Cl)c(C(=O)OCOC(=O)OC(C)C)n1Cc1ccc(-c2ccccc2-c2nnn[nH]2)cc1 [Experiment 2, 2-butyl-4-chloro-1-[2′-(1H-tetrazol-5-yl)-1,1′-biphenyl-methyl]-imidazole-5-carboxylic acid, 1-[(isopropoxy)-carbonyloxy]methyl ester]
48-53 ° | 0.51 | obvious electrostatic phenomenon | CCCCc1nc(Cl)c(C(=O)OCOC(=O)OC(C)C)n1Cc1ccc(-c2ccccc2-c2nnn[nH]2)cc1 [Patent Crystal, 2-butyl-4-chloro-1-[2′-(1H-tetrazol-5-yl)-1,1′-biphenyl-methyl]-imidazole-5-carboxylic acid, 1-[(isopropoxy)-carbonyloxy]methyl ester, reference compound]
33-36 ° | 0.77 | no obvious electrostatic phenomenon | CCCCc1nc(Cl)c(C(=O)OCOC(=O)OC(C)C)n1Cc1ccc(-c2ccccc2-c2nnn[nH]2)cc1 [Amorphous allisartan isoproxil obtained from experiment 1] [2-butyl-4-chloro-1-[2′-(1H-tetrazol-5-yl)-1,1′-biphenyl-methyl]-imidazole-5-carboxylic acid, 1-[(isopropoxy)-carbonyloxy]methyl ester]
